From patent US4728656A, “2,2-alkyldiylbis(thio)bis(imidazoles) useful for inhibition of the 5-lipoxygenase pathway” (SmithKline Beckman Corporation, priority 1986, dated 1988)
Read-outs that look alike come from different tables or passages of the source.

What was measured:
myocardial infarction = details: dogs; Mollane et al.; cited from earlier work
5-Lipoxygenase = molecular target: T1, 5-Lipoxygenase (Rattus norvegicus, UniProt P12527); test: Assay of 5-lipoxygenase activity in RBL-1 cell extract (high speed supernatant); type: biochemical; details: 25 μM arachidonic acid, 5 min at 37° C.
T1 construct: The broken cell extract was then centrifuged at 10,000×g for 20 minutes (min) and the supernatant centrifuge at 100,000×g for 60 min; host or cells: RBL-1 cells, high speed (100,000×g) supernatant
T1 sequence (P12527 1-673): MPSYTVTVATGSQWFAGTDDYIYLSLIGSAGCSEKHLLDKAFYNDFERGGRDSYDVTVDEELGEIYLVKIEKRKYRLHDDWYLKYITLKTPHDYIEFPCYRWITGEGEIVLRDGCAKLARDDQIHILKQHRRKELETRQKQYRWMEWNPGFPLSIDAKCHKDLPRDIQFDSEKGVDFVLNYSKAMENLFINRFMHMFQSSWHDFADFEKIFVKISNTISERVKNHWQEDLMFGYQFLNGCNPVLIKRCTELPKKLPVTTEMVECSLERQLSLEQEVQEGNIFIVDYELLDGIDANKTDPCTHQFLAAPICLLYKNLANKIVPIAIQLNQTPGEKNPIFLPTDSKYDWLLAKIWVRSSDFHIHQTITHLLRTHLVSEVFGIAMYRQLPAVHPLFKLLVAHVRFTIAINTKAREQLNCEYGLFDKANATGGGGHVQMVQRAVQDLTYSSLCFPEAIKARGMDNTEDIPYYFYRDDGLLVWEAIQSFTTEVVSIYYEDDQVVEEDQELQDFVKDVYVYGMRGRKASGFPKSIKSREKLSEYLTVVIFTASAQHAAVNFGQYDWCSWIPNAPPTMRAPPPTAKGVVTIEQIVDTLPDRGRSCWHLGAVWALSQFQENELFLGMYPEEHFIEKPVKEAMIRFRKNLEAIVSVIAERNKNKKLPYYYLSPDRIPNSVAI
Description: For in vitro experiments, compounds were dissolved at appropriate concentrations in ethanol (final concentration 1.0%) and then diluted to final concentrations using the buffers indicated in the text.
The activities of these enzymes in extracts of RBL-1 cells were assayed using the method of Jakschik and Lee, Nature, 287, 51-52 (1980). RBL--1 cells were obtained from the American Type Culture Collection (#CRL 1378) and were grown at 37° C. (5% CO2 in air) in spinner culture in MEM supplemented with 10% heat inactivated fetal calf serum. Harvested cells were washed with 50 mM sodium phosphate buffer, pH 7.0, containing 1 mM EDTA and 0.1% gelatin, resuspended in fresh buffer (5×10^7 cells/ml) and disrupted by nitrogen cavitation using the Parr bomb at 750 psi for 10 min. The broken cell extract was then centrifuged at 10,000×g for 20 minutes (min) and the supernatant centrifuge at 100,000×g for 60 min. Aliquots (0.25 mls) of the supernatant were preincubated with or without drugs for 10 min, after which 12 mM CaCl2 was added and the reaction was initiated with […] arachidonic acid-1-^14 C (final concentration was 25 μM; specific activity 20,000 dpm/nmole). After incubation for 5 min at 37° C., the reaction was terminated by addition of 2 volumes (0.5 ml) ice cold acetone and the sample was allowed to deproteinize on ice for 10 min prior to centrifugation at 1,000×g for 10 min. The deproteinized supernatant was adjusted to pH 3.5 with 2N formic acid and extracted with 2 volumes of ice cold ethyl acetate. The extracted samples were dried under argon, redissolved in ethyl acetate and applied to Whatman LK5D thin layer chromatography (TLC) plates which were developed using the A-9 solvent system [organic phase of ethyl acetate: 2,2,5-trimethylpentane:acetic acid:water (110:50:20:10)] described by Hamberg and Samuelsson, J. Biol. Chem., 241, 257-263 (1966). Arachidonic acid, 5-HETE, LTB4 and PGD2 were quantified with a Berthold LB 2832 autoscanner.
Under these conditions, only the 5-lipoxygenase pathway metabolites were detectable. The 5-HETE and di-HETEs were formed at a linear rate, and substantial amounts of the arachidonic acid-1-^14 C substrate were utilized.
Drug-induced effects on enzyme activities are described as the concentration of drug causing a 50% inhibition of metabolite synthesis (IC50).

[1] = system: Arachidonic Acid-Induced Mouse Ear Inflammation; test: Arachidonic acid-induced mouse ear inflammation (ear swelling); type: in vivo, male Balb/c mice; design: key to % Inhibition of Ear Swelling: *: p < .05; **: p < .01; ***: p < .001; NS: not significant; details: p.o.
Description: In the following Examples male Balb/c mice (20-28 g) were used. All mice were obtained from Charles River Breeding Laboratories, Kingston, N.Y. Within a single experiment, mice were sex and age matched.
Compounds of Formula (I), indomethacin, naproxen, and ibuprofen were each used as the free base. The compounds were homogenized in 0.5% tragacanth. Compounds were administered by gavage at the indicated dose in a final volume of 10 ml/kg.
Arachidonic acid in acetone (2 mg/20 μl ) was applied to the inner surface of the left ear. The thickness of both ears was then measured with a dial micrometer one hour after treatment, and the data were expressed as the change in thickness (10^-3 cm) between treated and untreated ears.
Test compounds were given orally in 0.5% tragacanth at the times indicated in the text prior to the topical application of arachidonic acid.
Parenteral administration of compound was accomplished by subcutaneous injection of solution as indicated.

[2] = system: LTB4 and 5-HETE production; details: in vitro; Stenson et al.; cited from earlier work
rheumatoid arthritis = details: preliminary observation; Neumann et al.; cited from earlier work
psoriasis = details: Allen et al.; cited from earlier work
lipoxygenase = details: in vitro; cited from earlier work
[3] = 5HETE production by RBL1 high speed supernatant, read-out: 5-HETE IC50
[4] = LTB4 production by RBL1 high speed supernatant, read-out: LTB4 IC50

In the case of `NC1=NN(c2cccc(C(F)(F)F)c2)CC1` [BW755-C], the “area of infarction following coronary occlusion” value (myocardial infarction) is listed as “reduced” and the “leukocyte infiltration into the ischaemic tissue” value (myocardial infarction) is listed as “inhibition of leukocyte infiltration into the ischaemic tissue”.

With `Fc1ccc(-c2nc(SCCSc3nc(-c4ccc(F)cc4)c(-c4ccc(F)cc4)[nH]3)[nH]c2-c2ccc(F)cc2)cc1` [Compound 1, 2,2'-[ethanediylbis(thio)]bis[4,5-bis(4-fluorophenyl)-1H-imidazole]] the IC50 (5-Lipoxygenase; [3]) was 18500 nM and the IC50 (5-Lipoxygenase; [4]) was 3300 nM.

In the case of `O=C(CSc1nc(-c2ccc(F)cc2)c(-c2ccncc2)[nH]1)CSc1nc(-c2ccc(F)cc2)c(-c2ccncc2)[nH]1` [Compound 2, 2-2'-[1,3-propan-2-onediylbis(thio)]bis[5-(4-pyridyl)-4-(4-fluorophenyl)-1H-imidazole]], the “% Inhibition of Ear Swelling” value ([1]; Table I, 2 mg arachidonic acid, thickness 1 h after treatment) is reported as “NS”, the IC50 (5-Lipoxygenase; [3]) is reported as 1700 nM and the IC50 (5-Lipoxygenase; [4]) is reported as 650 nM.

For `O=C(CSc1nc(-c2ccc(F)cc2)c(-c2ccc(F)cc2)[nH]1)CSc1nc(-c2ccc(F)cc2)c(-c2ccc(F)cc2)[nH]1` [Compound 3, 2,2'-[1,3-propan-2-onediylbis(thio)]bis[4,5-bis-(4-fluorophenyl)-1H-imidazole]], the IC50 (5-Lipoxygenase; [3]) was 5300 nM and the IC50 (5-Lipoxygenase; [4]) was 1600 nM.

For `O=C(O)c1cc(/N=N/c2ccc(S(=O)(=O)Nc3ccccn3)cc2)ccc1O` [Sulfasalazine], the “inhibition of LTB4 and 5-HETE production” value [2] is listed as “inhibit LTB4 and 5-HETE production in vitro” and the “efficacy in rheumatoid arthritic patients” value (rheumatoid arthritis) is listed as “efficacy, including remission”.

In the case of `CC(C(=O)O)c1ccc2oc(-c3ccc(Cl)cc3)nc2c1` (stereo not shown) [benoxaprofen], the effect on psoriasis (psoriasis) is listed as “promising effect” and the lipoxygenase inhibitory activity (lipoxygenase) is listed as “in vitro lipoxygenase inhibitory activity”.

With `CC(C)Cc1ccc(C(C)C(=O)O)cc1` (stereo not shown) [ibuprofen] the antiinflammatory activity ([1]; 250 mg/kg) was “did not exhibit detectaole antiinflammatory activity”.

In the case of `COc1ccc2c(c1)c(CC(=O)O)c(C)n2C(=O)c1ccc(Cl)cc1` [indomethacin], the antiinflammatory activity ([1]; 10 mg/kg) is reported as “did not exhibit detectaole antiinflammatory activity”.

With `COc1ccc2cc([C@H](C)C(=O)O)ccc2c1` [naproxen] the antiinflammatory activity ([1]; 100 mg/kg) was “did not exhibit detectaole antiinflammatory activity”.
